Bridge positions count the residues as written; N and C are the ends. Square brackets hold non-standard residues; d marks the D form. Peptide text beside a SMILES is read from it. * marks the point of attachment. 2Naphthoyl(6-heptyloxy) = CCCCCCCOc1ccc2cc(C(=O)*)ccc2c1; 2Naphthoyl(6-octyloxy) = CCCCCCCCOc1ccc2cc(C(=O)*)ccc2c1; X2 = CCCCCCCOc1ccc(-c2ccc(-c3ccc(C(=O)*)cc3)cc2)cc1; X1 = CCCOc1ccc(-c2ccc(-c3ccc(C(=O)*)cc3)cc2)cc1; Pro(4S-NH2) = N[C@@H]1CN[C@H](C(=O)O)C1; hTyr = N[C@@H](CCc1ccc(O)cc1)C(=O)O; Orn = NCCC[C@H](N)C(=O)O
Legend:
Assay type in all cases: functional
Pichia kudriavzevii = experiment: Antifungal activity against Candida krusei after 24 hrs by serial dilution method
Candida tropicalis = experiment: Antifungal activity against Candida tropicalis after 24 hrs by serial dilution method
Candida albicans [1] = experiment: Ratio of caspofungin MIC to compound MIC for Candida albicans by serial dilution method
Candida albicans [2] = experiment: Antifungal activity against Candida albicans after 24 hrs by serial dilution method
Aspergillus fumigatus = experiment: Antifungal activity against Aspergillus fumigatus after 7 days by serial dilution method; settings: 168 h
Cryptococcus neoformans = experiment: Antifungal activity against Cryptococcus neoformans after 72 hrs by serial dilution method
Candida parapsilosis = experiment: Antifungal activity against Candida parapsilosis after 24 hrs by serial dilution method; settings: Lodderomyces parapsilosis
Trichophyton rubrum = experiment: Antifungal activity against Trichophyton rubrum after 7 days by serial dilution method; settings: 168 h

MIC80 (Pichia kudriavzevii) | MIC80 (Candida tropicalis) | MIC80 (Candida albicans [2]) | MIC80 (Aspergillus fumigatus) | MIC80 (Cryptococcus neoformans) | MIC80 (Candida parapsilosis) | MIC80 (Trichophyton rubrum) | Structure (SMILES) | Ratio (Candida albicans [1])
0.5 µg/mL | 16 µg/mL | 0.125 µg/mL | 1 µg/mL | 64 µg/mL | 4 µg/mL | 32 µg/mL | CCCCCCCOc1ccc2cc(C(=O)N[C@H]3CCCNC(=O)[C@@H]4C[C@H](N)CN4C(=O)[C@H](CCCCN)NC(=O)[C@H](CCc4ccc(O)cc4)NC(=O)[C@@H]4CCCN4C(=O)[C@H]([C@@H](C)O)NC3=O)ccc2c1.Cc1ccc(S(=O)(=O)O)cc1 ({2Naphthoyl(6-heptyloxy)}-[Orn]TP[hTyr]K[Pro(4S-NH2)]; lactam 1-C) | 4
2 µg/mL | 16 µg/mL | 1 µg/mL | 1 µg/mL | 64 µg/mL | 8 µg/mL | 32 µg/mL | CCCCCCCOc1ccc(-c2ccc(-c3ccc(C(=O)N[C@H]4CCCNC(=O)[C@@H]5C[C@H](N)CN5C(=O)[C@H](CCCN)NC(=O)[C@H](CCc5ccc(O)cc5)NC(=O)[C@@H]5CCCN5C(=O)[C@H](C(C)C)NC4=O)cc3)cc2)cc1.Cc1ccc(S(=O)(=O)O)cc1 (X2-[Orn]VP[hTyr][Orn][Pro(4S-NH2)]; lactam 1-C) | 
0.5 µg/mL | 8 µg/mL | 0.125 µg/mL | 2 µg/mL | 32 µg/mL | 4 µg/mL | 64 µg/mL | CCCOc1ccc(-c2ccc(-c3ccc(C(=O)N[C@H]4CCCNC(=O)[C@@H]5C[C@H](N)CN5C(=O)[C@H](CCCN)NC(=O)[C@H](CCc5ccc(O)cc5)NC(=O)[C@@H]5CCCN5C(=O)[C@H]([C@@H](C)O)NC4=O)cc3)cc2)cc1.Cc1ccc(S(=O)(=O)O)cc1 (X1-[Orn]TP[hTyr][Orn][Pro(4S-NH2)]; lactam 1-C) | 4
2 µg/mL | 16 µg/mL | 0.5 µg/mL | 1 µg/mL | 16 µg/mL | 2 µg/mL | 16 µg/mL | CCCCCCCCOc1ccc2cc(C(=O)N[C@H]3CCCNC(=O)[C@@H]4C[C@H](N)CN4C(=O)[C@H](CCCN)NC(=O)[C@H](CCc4ccc(O)cc4)NC(=O)[C@@H]4CCCN4C(=O)[C@H](C(C)C)NC3=O)ccc2c1.Cc1ccc(S(=O)(=O)O)cc1 ({2Naphthoyl(6-octyloxy)}-[Orn]VP[hTyr][Orn][Pro(4S-NH2)]; lactam 1-C) | 
1 µg/mL | 8 µg/mL | 0.25 µg/mL | 1 µg/mL | 16 µg/mL | 2 µg/mL | 16 µg/mL | CCCCCCCOc1ccc(-c2ccc(-c3ccc(C(=O)N[C@H]4CCCNC(=O)[C@@H]5C[C@H](N)CN5C(=O)[C@H](CCCCN)NC(=O)[C@H](CCc5ccc(O)cc5)NC(=O)[C@@H]5CCCN5C(=O)[C@H]([C@@H](C)O)NC4=O)cc3)cc2)cc1.Cc1ccc(S(=O)(=O)O)cc1 (X2-[Orn]TP[hTyr]K[Pro(4S-NH2)]; lactam 1-C) | 
1 µg/mL | 16 µg/mL | 0.25 µg/mL | 1 µg/mL | 16 µg/mL | 2 µg/mL | 64 µg/mL | CCCOc1ccc(-c2ccc(-c3ccc(C(=O)N[C@H]4CCCNC(=O)[C@@H]5C[C@H](N)CN5C(=O)[C@H](CCCCN)NC(=O)[C@H](CCc5ccc(O)cc5)NC(=O)[C@@H]5CCCN5C(=O)[C@H]([C@@H](C)O)NC4=O)cc3)cc2)cc1.Cc1ccc(S(=O)(=O)O)cc1 (X1-[Orn]TP[hTyr]K[Pro(4S-NH2)]; lactam 1-C) | 
1 µg/mL | 8 µg/mL | 0.25 µg/mL | 0.5 µg/mL | 16 µg/mL | 2 µg/mL | 16 µg/mL | CCCCCCCOc1ccc(-c2ccc(-c3ccc(C(=O)N[C@H]4CCCNC(=O)[C@@H]5C[C@H](N)CN5C(=O)[C@H](CCCN)NC(=O)[C@H](CCc5ccc(O)cc5)NC(=O)[C@@H]5CCCN5C(=O)[C@H]([C@@H](C)O)NC4=O)cc3)cc2)cc1.Cc1ccc(S(=O)(=O)O)cc1 (X2-[Orn]TP[hTyr][Orn][Pro(4S-NH2)]; lactam 1-C) | 
1 µg/mL | 4 µg/mL | 0.5 µg/mL | 1 µg/mL | 32 µg/mL | 4 µg/mL | 32 µg/mL | CCCCCCCCOc1ccc2cc(C(=O)N[C@H]3CCCNC(=O)[C@@H]4C[C@H](N)CN4C(=O)[C@H](CCCN)NC(=O)[C@H](CCc4ccc(O)cc4)NC(=O)[C@@H]4CCCN4C(=O)[C@H]([C@@H](C)O)NC3=O)ccc2c1.Cc1ccc(S(=O)(=O)O)cc1 ({2Naphthoyl(6-octyloxy)}-[Orn]TP[hTyr][Orn][Pro(4S-NH2)]; lactam 1-C) | 

Source: ChEMBL document CHEMBL1949505, “Total synthesis and structure-activity relationships of new echinocandin-like antifungal cyclolipohexapeptides” (2012)
